Test results from PMC9146500, “New Quinoline–Urea–Benzothiazole Hybrids as Promising Antitubercular Agents: Synthesis, In Vitro Antitubercular Activity, Cytotoxicity Studies, and In Silico ADME Profiling” (Pharmaceuticals, 2022).
Values after ≈ are worked out from the molar mass of the structure shown. Values joined by “and” are separate entries in the source; they are usually repeats but may differ in a detail not shown here. Identical values can stand only once. Like-named read-outs stand apart in the source and are kept apart here.

What was measured:
[1] = test system: Mycobacterium tuberculosis H37Rv pMSp12::GFP; experiment: microbe, parasite or virus in culture; type: cell-based; settings: Mtb H37Rv, protein-rich media, 7 days, read-out: MIC90 7H9/ADC/GLU/Tw 7 Days
[2] = test system: Mycobacterium tuberculosis H37Rv pMSp12::GFP; experiment: microbe, parasite or virus in culture; type: cell-based; settings: Mtb H37Rv
[3] = MTT cytotoxicity assay; settings: human; for IC20 at 24 h: IC20, HepG2, 24 h, MTT, concentration at which cells retain 80% viability, extrapolated from the dose–response curve
[4] = Mycobacterium tuberculosis, H37RV, 168 h
[5] = Mycobacterium tuberculosis, H37RV, 168 h, protein-poor media, 7 days, read-out: MIC90 7H9/CAS/GLU/Tx 7 Days
[6] = protein-poor media, 7 days, read-out: MIC90 7H9/CAS/GLU/Tx 7 Days
[7] = both media (CAS and ADC) or medium not given
[8] = Mycobacterium tuberculosis, 168 h, protein-poor media, 7 days, read-out: MIC90 7H9/CAS/GLU/Tx 7 Days
[9] = Mycobacterium tuberculosis, H37RV, both media (CAS and ADC) or medium not given, read-out: MIC90

Compound | MIC90 [1, 4] | MIC90 [2, 5] | viability at 24 h [3] | IC20 at 24 h [3] | MIC90 [2, 6] | MIC90 [2, 7] | melting point | MIC ([1]; Mycobacterium tuberculosis, 168 h) | MIC [2, 8] | MIC90 [2, 9] | MIC90 [1]
NCCCCCCNc1ccnc2cc(Cl)ccc12 [Compound 2e] | > 125 µM | > 125 µM |  |  |  |  |  |  |  |  | 
O=C(Nc1nc2ccc(F)cc2s1)n1ccnc1 [Compound 5b] | > 125 µM | > 125 µM |  |  |  |  |  |  |  |  | 
O=C(NNc1ccnc2cc(Cl)ccc12)Nc1nc2ccccc2s1 [Compound 6a, N-(Benzo[d]thiazol-2yl)-2-(7-chloroquinolin-4-yl)hydrazine-1-carboxamide] | > 125 µM | 21 µM (≈ 7.77 µg/mL) | 75% | 15.1 µM | 21.001 µM (≈ 7.77 µg/mL) |  |  |  |  |  | 
O=C(NNc1ccnc2cc(Cl)ccc12)Nc1nc2ccc(C(F)(F)F)cc2s1 [Compound 6b, 2-(7-Chloroquinolin-4-yl)-N-(6-(trifluoromethyl)benzo[d]thiazol-2-yl)hydrazine-1-carboxamide] | 6.85 µM (≈ 3 µg/mL) | 4.94 µM (≈ 2.16 µg/mL) |  |  |  | excellent activity in both media |  |  |  |  | 
O=C(NNc1ccnc2cc(Cl)ccc12)Nc1nc2ccc(F)cc2s1 [Compound 6c, 2-(7-Chloroquinolin-4-yl)-N-(6-fluorobenzo[d]thiazol-2-yl)hydrazine-1-carboxamide] | > 125 µM | > 125 µM |  |  |  |  |  |  |  |  | 
O=C(NNc1ccnc2cc(Cl)ccc12)Nc1nc2ccc([N+](=O)[O-])cc2s1 [Compound 6d, 2-(7-Chloroquinolin-4-yl)-N-(6-nitrobenzo[d]thiazol-2-yl)hydrazine-1-carboxamide] | > 125 µM | > 125 µM |  |  |  |  |  |  |  |  | 
O=C(NCCNc1ccnc2cc(Cl)ccc12)Nc1nc2ccc(C(F)(F)F)cc2s1 [Compound 6e, 1-(2-((7-Chloroquinolin-4-yl)amino)ethyl)-3-(6-(trifluoromethyl)benzo[d]thiazol-2-yl)urea] |  |  |  |  |  |  | 249 to 251 °C |  |  |  | 
O=C(NCCNc1ccnc2cc(Cl)ccc12)Nc1nc2ccc(Cl)cc2s1 [Compound 6f, 1-(6-Chlorobenzo[d]thiazol-2-yl)-3-(2-((7-chloroquinolin-4-yl)amino)ethyl)urea] | > 125 µM | 125 µM (≈ 54 µg/mL) |  |  |  |  | 244 to 245 °C |  |  |  | 
O=C(NCCNc1ccnc2cc(Cl)ccc12)Nc1nc2ccc(F)cc2s1 [Compound 6h, 1-(6-Fluorobenzo[d]thiazol-2-yl)-3-(2-((7-chloroquinolin-4-yl)amino)ethyl)urea] |  |  |  |  |  |  |  | 62.5 µM (≈ 26 µg/mL) | 62.5 µM (≈ 26 µg/mL) | 62.5 µM (≈ 26 µg/mL) | 
O=C(NCCCNc1ccnc2cc(Cl)ccc12)Nc1nc2ccc(C(F)(F)F)cc2s1 [Compound 6i, 1-(3-((7-Chloroquinolin-4-yl)amino)propyl)-3-(6-(trifluoromethyl)benzo[d]thiazol-2-yl)urea] | 12.8 µM (≈ 6.16 µg/mL) | 7.81 µM (≈ 3.75 µg/mL) | 87% | 11.2 µM |  |  | 198 to 200 °C |  |  |  | 
O=C(NCCCNc1ccnc2cc(Cl)ccc12)Nc1nc2ccc(Cl)cc2s1 [Compound 6j, 1-(6-Chlorobenzo[d]thiazol-2-yl)-3-(3-((7-chloroquinolin-4-yl)amino)propyl)urea] | 11.7 µM (≈ 5.24 µg/mL) | 4.39 µM (≈ 1.96 µg/mL) | 86% | 26.3 µM | 4.389 µM (≈ 1.96 µg/mL) |  | 286 to 288 °C |  |  |  | 
Cc1ccc2nc(NC(=O)NCCCNc3ccnc4cc(Cl)ccc34)sc2c1 [Compound 6k, 1-(3-((7-Chloroquinolin-4-yl)amino)propyl)-3-(6-methylbenzo[d]thiazol-2-yl)urea] | 62.3 µM (≈ 26.5 µg/mL) | 31.2 µM (≈ 13.3 µg/mL) | 93% | 42.7 µM |  |  | 234 to 239 °C |  |  |  | 
O=C(NCCCNc1ccnc2cc(Cl)ccc12)Nc1nc2ccccc2s1 [Compound 6l, 1-(3-((7-Chloroquinolin-4-yl)amino)propyl)-3-(benzo[d]thiazol-2-yl)urea] | 9.45 µM (≈ 3.89 µg/mL) | 9.63 µM (≈ 3.97 µg/mL) | 100% | 105 µM |  |  |  |  |  |  | 9.447 µM (≈ 3.89 µg/mL)
O=C(NCCCNc1ccnc2cc(Cl)ccc12)Nc1nc2ccc(Br)cc2s1 [Compound 6m, 1-(6-Bromobenzo[d]thiazol-2-yl)-3-(3-((7-chloroquinolin-4-yl)amino)propyl)urea] | 16.9 µM (≈ 8.28 µg/mL) | 15.9 µM (≈ 7.82 µg/mL) | 100% | 25.1 µM |  |  | 254 to 257 °C |  |  |  | 
O=C(NCCCNc1ccnc2cc(Cl)ccc12)Nc1nc2ccc(F)cc2s1 [Compound 6n, 1-(6-Fluorobenzo[d]thiazol-2-yl)-3-(3-((7-chloroquinolin-4-yl)amino)propyl)urea] | 125 µM (≈ 53.7 µg/mL) | > 125 µM |  |  |  | devoid of any activity | 241 to 243 °C |  |  |  | 
O=C(NCCCCNc1ccnc2cc(Cl)ccc12)Nc1nc2ccc(Cl)cc2s1 [Compound 6o, 1-(6-Chlorobenzo[d]thiazol-2-yl)-3-(4-((7-chloroquinolin-4-yl)amino)butyl)urea] | 23.5 µM (≈ 10.8 µg/mL) | 7.46 µM (≈ 3.43 µg/mL) | 30% | 2.13 µM |  |  | 189 to 191 °C and 189.8 to 191.3 °C |  | 7.43 µM (≈ 3.42 µg/mL) |  | 
O=C(NCCCCNc1ccnc2cc(Cl)ccc12)Nc1nc2ccc(F)cc2s1 [Compound 6q, 1-(6-Fluorobenzo[d]thiazol-2-yl)-3-(4-((7-chloroquinolin-4-yl)amino)butyl)urea] | > 125 µM | > 125 µM |  |  |  | not active at all | 256 to 259 °C |  |  |  | 
O=C(NCCCCCCNc1ccnc2cc(Cl)ccc12)Nc1nc2ccc(Cl)cc2s1 [Compound 6r, 1-(6-Chlorobenzo[d]thiazol-2-yl)-3-(6-((7-chloroquinolin-4-yl)amino)hexyl)urea] | 14.6 µM (≈ 7.14 µg/mL) | 7.6 µM (≈ 3.71 µg/mL) | 72% | 5.47 µM |  |  | 239 to 241 °C |  |  |  | 
O=C(NCCCCCCNc1ccnc2cc(Cl)ccc12)Nc1nc2ccc(Br)cc2s1 [Compound 6s, 1-(6-Bromobenzo[d]thiazol-2-yl)-3-(6-((7-chloroquinolin-4-yl)amino)hexyl)urea] | 21 µM (≈ 11.2 µg/mL) | 8.76 µM (≈ 4.67 µg/mL) | 76% | 7.02 µM |  |  | 192 to 194 °C |  |  |  | 
O=C(NCCCCCCNc1ccnc2cc(Cl)ccc12)Nc1nc2ccc(F)cc2s1 [Compound 6t, 1-(6-((7-Chloroquinolin-4-yl)amino)hexyl)-3-(6-fluorobenzo[d]thiazol-2-yl)urea] | 31.2 µM (≈ 14.7 µg/mL) | 6.97 µM (≈ 3.29 µg/mL) | 92% | 12.9 µM |  |  | 256 to 259 °C |  |  | 6.97 to 31.2 µM (≈ 3.29 to 14.7 µg/mL) | 
CC(CNc1ccnc2cc(Cl)ccc12)NC(=O)Nc1nc2ccc(C(F)(F)F)cc2s1 (stereo not shown) [Compound 6u, 1-(1-((7-Chloroquinolin-4-yl)amino)propan-2-yl)-3-(6-(trifluoromethyl)benzo[d]thiazol-2-yl)urea] | 5.73 µM (≈ 2.75 µg/mL) | 0.97 µM (≈ 0.466 µg/mL) | 100% | 6.01 µM | 0.968 µM (≈ 0.465 µg/mL) |  |  |  |  |  | 5.732 µM (≈ 2.75 µg/mL)
CC(CNc1ccnc2cc(Cl)ccc12)NC(=O)Nc1nc2ccc(F)cc2s1 (stereo not shown) [Compound 6v, 1-(1-((7-Chloroquinolin-4-yl)amino)propan-2-yl)-3-(6-fluorobenzo[d]thiazol-2-yl)urea] | > 125 µM | > 125 µM |  |  |  |  | 228 to 230 °C |  |  |  | 
CC(CNc1ccnc2cc(Cl)ccc12)NC(=O)Nc1nc2ccc(Br)cc2s1 (stereo not shown) [Compound 6w, 1-(1-((7-Chloroquinolin-4-yl)amino)propan-2-yl)-3-(6-bromobenzo[d]thiazol-2-yl)urea] | 14 µM (≈ 6.87 µg/mL) | 8.19 µM (≈ 4.02 µg/mL) | 19% | 3.38 µM |  |  | 246 to 248 °C |  |  |  | 
CO[C@H]1/C=C/O[C@@]2(C)Oc3c(C)c(O)c4c(O)c(c(/C=N/N5CCN(C)CC5)c(O)c4c3C2=O)NC(=O)/C(C)=C\C=C\[C@H](C)[C@H](O)[C@@H](C)[C@@H](O)[C@@H](C)[C@H](OC(C)=O)[C@@H]1C [RIF, Rifampicin, reference compound] | 0.001 µM (≈ 0.000823 µg/mL) | 0.03 µM (≈ 0.0247 µg/mL) |  |  |  |  |  |  |  |  | 
NC(N)=O [Urea] |  |  |  |  | >125 µM |  |  |  |  |  | >125 µM
